Reference: article PMC10536189 (Microorganisms, 2023)
Entries after “also recorded” stand apart in the source; their conditions may differ.

System: multidrug-resistant (MDR) Mycobacterium tuberculosis
Type: cell-based
Settings: Peptide 14D at 1 µg/mL; low inoculum

Substance: wkivfwwrr-CONH2 [Peptide 14D]
- Effect on growth of multidrug-resistant MTB: reducing the lag time before growth starts; also recorded: increased growth
